A value given as a limit tells only on which side of the number the result lay.

The assay has as its system HBV. Briefly: HBV-DNA antiviral assay using HepG2.117 cells (intracellular HBV DNA by qPCR). It counts as cell-based, genotype D HBV. The note with it: Hepatitis B virus, 72 h, HBV DNA inhibition, 3 days incubation, 2% DMSO. The method in brief: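 HepG2.117 cells (stable genotype D HBV, Tet-off) seeded without doxycycline, treated next day with 9-point 4-fold dilutions in 2% DMSO for 3 days at 37° C. Intracellular HBV DNA quantified by qPCR against a standard curve; viability by CellTiter-Glo ATP. EC50, EC90, CC50 from variable-slope dose-response fits versus DMSO control.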
Background: Real-time PCR tracks product formation cycle by cycle.
As to `CC(C)[C@@H](N)C(=O)OCN(C)C(=O)c1ccc(-n2c(=O)c3c(n4ncc(CC5CC5)c24)CN(C(=O)c2ccc(Br)c(C(F)(F)F)c2)[C@H](C)C3)cc1` [Compound 106, [[4-[(11R)-12-[4-bromo-3-(trifluoromethyl)benzoyl]-5-(cyclopropylmethyl)-11-methyl-8-oxo-2,3,7,12-tetrazatricyclo[7.4.0.0^2,6]trideca-1(9),3,5-trien-7-yl]benzoyl]-methyl-amino]methyl (2S)-2-amino-3-methyl-butanoate], the concentration for a half-maximal effect (EC50) (as a rule, the midpoint of the concentration-response curve) is < 0.05 µM.

As for `CNc1n[nH]c2cc(-n3c(=O)c4c(n5ncc(CC(C)C)c35)CN(C(=O)c3ccc(Cl)c(C(F)(F)F)c3)[C@H](C)C4)ccc12` (stereo in doubt) [Compound 56a, rac-(11R)-12-[4-chloro-3-(trifluoromethyl)benzoyl]-5-isobutyl-11-methyl-7-[3-(methylamino)-1H-indazol-6-yl]-2,3,7,12-tetrazatricyclo[7.4.0.0^2,6]trideca-1(9),3,5-trien-8-one], the half-maximal effective concentration (EC50) is < 0.05 µM.

As to `Cc1nnc(-c2ccc(-n3c(=O)c4c(n5ncc(Cc6ccccc6)c35)CN(C(=O)c3ccc(Cl)c(C(F)(F)F)c3)[C@H](C)C4)cc2)[nH]1` (stereo in doubt) [Compound 52a, rac-(11R)-5-benzyl-12-[4-chloro-3-(trifluoromethyl)benzoyl]-11-methyl-7-[4-(5-methyl-4H-1,2,4-triazol-3-yl)phenyl]-2,3,7,12-tetrazatricyclo[7.4.0.0^2,6]trideca-1(9),3,5-trien-8-one], the concentration giving a half-maximal response (EC50) was < 0.05 µM.

The compound `C[C@H]1Cc2c(n3ncc(Cc4ccccc4)c3n(-c3ccc(-c4ncnn4C)cc3)c2=O)CN1C(=O)c1ccc(Br)c(C(F)(F)F)c1` (stereo in doubt) [Compound 49b, rac-(11S)-5-benzyl-12-[4-bromo-3-(trifluoromethyl)benzoyl]-11-methyl-7-[4-(2-methyl-1,2,4-triazol-3-yl)phenyl]-2,3,7,12-tetrazatricyclo[7.4.0.0^2,6]trideca-1(9),3,5-trien-8-one] came in with a concentration for a half-maximal effect (EC50) of 0.05 to 0.5 µM.

Turning to `C[C@H]1Cc2c(n3ncc(Cc4ccccc4)c3n(-c3ccc4c(c3)nnn4C)c2=O)CN1C(=O)c1ccc(Br)c(C(F)(F)F)c1` (stereo in doubt) [Compound 72b, rac-(11S)-5-benzyl-12-[4-bromo-3-(trifluoromethyl)benzoyl]-11-methyl-7-(1-methylbenzotriazol-5-yl)-2,3,7,12-tetrazatricyclo[7.4.0.0^2,6]trideca-1(9),3,5-trien-8-one], the EC50 was < 0.05 µM.

Turning to `CNc1nnc2cc(-n3c(=O)c4c(n5ncc(Cc6ccccc6)c35)CN(C(=O)c3ccc(Br)c(C(F)(F)F)c3)CC4)ccn12` [Compound 30, 5-benzyl-12-[4-bromo-3-(trifluoromethyl)benzoyl]-7-[3-(methylamino)-[1,2,4]triazolo[4,3-a]pyridin-7-yl]-2,3,7,12-tetrazatricyclo[7.4.0.0^2,6]trideca-1(9),3,5-trien-8-one], the EC50 is < 0.05 µM.

Turning to `CNC(=O)c1cnc(-n2c(=O)c3c(n4ncc(CC(C)C)c24)CN(C(=O)c2ccc(Br)c(C(F)(F)F)c2)[C@@H](C)C3)nc1` (stereo in doubt) [Compound 85b, N-methyl-2-[rac-(11S)-12-[4-bromo-3-(trifluoromethyl)benzoyl]-5-isobutyl-11-methyl-8-oxo-2,3,7,12-tetrazatricyclo[7.4.0.0^2,6]trideca-1(9),3,5-trien-7-yl]pyrimidine-5-carboxamide], the EC50 was < 0.05 µM.

For `CNC(=O)c1cnc(-n2c(=O)c3c(n4ncc(Cc5ccccc5)c24)CN(C(=O)c2ccc(Br)c(C(F)(F)F)c2)[C@@H](C)C3)cn1` (stereo in doubt) [Compound 73b, N-methyl-5-[rac-(11S)-5-benzyl-12-[4-bromo-3-(trifluoromethyl)benzoyl]-11-methyl-8-oxo-2,3,7,12-tetrazatricyclo[7.4.0.0^2,6]trideca-1(9),3,5-trien-7-yl]pyrazine-2-carboxamide], the EC50 is < 0.05 µM.

For the origin of these results see US11820773B2, “Tricyclic compounds” (ALIGOS THERAPEUTICS, INC., priority 2020, dated 2023).
